Assay results from ChEMBL document CHEMBL5500384, “New synergistic benzoquinone scaffolds as inhibitors of mycobacterial cytochrome bc1 complex to treat multi-drug resistant tuberculosis” (Eur J Med Chem, 2024).

Columns and labels:
[1] = tested on: Mycobacterium tuberculosis; assay: Antitubercular activity against Mycobacterium tuberculosis H37Rv incubated for 5 days by microtiter plate method; type: functional; conditions: 120 h, time 5 day
[2] = Hepatotoxicity in Albino mouse assessed as change in hepatic artery at 50 to 2000 mg/kg, po measured after 14 days; type: toxicity, organism-based, Liver; conditions: in vivo, 336 h, dose 50-2000 mg/kg, time 14 day
[3] = Acute toxicity in Albino mouse assessed as mortality at 50 mg/kg, po after 14 days; type: organism-based; conditions: in vivo, 336 h, time 14 day
[4] = Acute toxicity in Albino mouse assessed as mortality at 2000 mg/kg, po after 2 to 4 hrs; type: organism-based; conditions: in vivo, time 2-4 hrs
[5] = Acute toxicity in Albino mouse assessed as change in platelet count at 50 to 2000 mg/kg, po measured after 14 days (reference value: 3.24 mm3); type: organism-based; parameters: unit not given here; conditions: in vivo, 336 h, dose 50-2000 mg/kg, time 14 day
[6] = Cytotoxicity against african green monkey Vero cells assessed as cell viability at 3.125 ug/ml by MTT assay; type: toxicity, cell-based; conditions: chlorocebus sabaeus, at 3.125 µg/mL, read-out: Activity
[7] = Pulmonary toxicity in Albino mouse assessed as change in bronchi structure at 50 to 2000 mg/kg, po measured after 14 days; type: organism-based; conditions: in vivo, 336 h, dose 50-2000 mg/kg, time 14 day
[8] = Acute toxicity in Albino mouse assessed as change in eosinophils at 50 to 2000 mg/kg, po measured after 14 days (reference value: 3%); type: organism-based; conditions: in vivo, 336 h, dose 50-2000 mg/kg, time 14 day
[9] = Acute toxicity in Albino mouse assessed as change in SGPT count at 50 to 2000 mg/kg, po measured after 14 days (reference value: 52 IU/L); type: organism-based; conditions: in vivo, 336 h, dose 50-2000 mg/kg, time 14 day
[10] = Cytotoxicity against african green monkey Vero cells assessed as cell viability at 6.25 ug/ml by MTT assay; type: toxicity, cell-based; conditions: chlorocebus sabaeus, at 6.25 µg/mL, read-out: Activity
[11] = Pulmonary toxicity in Albino mouse assessed as appearance of goblet cells at 50 to 2000 mg/kg, po measured after 14 days; type: organism-based; conditions: in vivo, 336 h, dose 50-2000 mg/kg, time 14 day
[12] = Hepatotoxicity in Albino mouse assessed as change in hepatocytes at 50 to 2000 mg/kg, po measured after 14 days; type: toxicity, organism-based; conditions: in vivo, 336 h, dose 50-2000 mg/kg, time 14 day
[13] = Renal toxicity in Albino mouse assessed as change in proximal convoluted tubules at 50 to 2000 mg/kg, po measured after 14 days; type: organism-based; conditions: in vivo, 336 h, dose 50-2000 mg/kg, time 14 day
[14] = Cytotoxicity against african green monkey Vero cells assessed as cell viability at 50 ug/ml by MTT assay; type: toxicity, cell-based; conditions: chlorocebus sabaeus, at 50 µg/mL, read-out: Activity
[15] = Acute toxicity in Albino mouse assessed as change in RBC count measured per million cells at 50 to 2000 mg/kg, po measured after 14 days (reference value: 9.15 microL); type: organism-based, Erythrocyte; conditions: in vivo, 336 h, dose 50-2000 mg/kg, time 14 day
[16] = Cytotoxicity against african green monkey Vero cells by MTT assay; type: toxicity, cell-based; conditions: chlorocebus sabaeus
[17] = Cytotoxicity against african green monkey Vero cells assessed as cell viability at 100 ug/ml by MTT assay; type: toxicity, cell-based; conditions: chlorocebus sabaeus, at 100 µg/mL, read-out: Activity
[18] = Renal toxicity in Albino mouse assessed as structural absorbability abnormalities at 50 to 2000 mg/kg, po measured after 14 days; type: organism-based; conditions: in vivo, 336 h, dose 50-2000 mg/kg, time 14 day
[19] = Hepatotoxicity in Albino mouse assessed as change in portal vein at 50 to 2000 mg/kg, po measured after 14 days; type: toxicity, organism-based; conditions: in vivo, 336 h, dose 50-2000 mg/kg, time 14 day
[20] = Hepatotoxicity in Albino mouse assessed as change in portal tracks at 50 to 2000 mg/kg, po measured after 14 days; type: toxicity, organism-based; conditions: in vivo, 336 h, dose 50-2000 mg/kg, time 14 day
[21] = Acute toxicity in Albino mouse assessed as change in lymphocytes at 50 to 2000 mg/kg, po measured after 14 days (reference value: 21%); type: organism-based; conditions: in vivo, 336 h, dose 50-2000 mg/kg, time 14 day
[22] = Pulmonary toxicity in Albino mouse assessed as change in alveoli structure at 50 to 2000 mg/kg, po measured after 14 days; type: organism-based; conditions: in vivo, 336 h, dose 50-2000 mg/kg, time 14 day
[23] = Cytotoxicity against african green monkey Vero cells assessed as cell viability at 12.5 ug/ml by MTT assay; type: toxicity, cell-based; conditions: chlorocebus sabaeus, at 12.5 µg/mL, read-out: Activity
[24] = Pulmonary toxicity in Albino mouse assessed as change in alveolar sacs at 50 to 2000 mg/kg, po measured after 14 days; type: organism-based; conditions: in vivo, 336 h, dose 50-2000 mg/kg, time 14 day
[25] = Acute toxicity in Albino mouse assessed as change in ESR at 50 to 2000 mg/kg, po measured after 14 days (reference value: 10 millimeter); type: organism-based; conditions: in vivo, 336 h, dose 50-2000 mg/kg, time 14 day
[26] = Acute toxicity in Albino mouse assessed as change in LDH level at 50 to 2000 mg/kg, po measured after 14 days (reference value: 1052 IU/L); type: organism-based; conditions: in vivo, 336 h, dose 50-2000 mg/kg, time 14 day
[27] = Acute toxicity in Albino mouse assessed as change in serum creatine level at 50 to 2000 mg/kg, po measured after 14 days (reference value: 0.9 mg/dl); type: organism-based; conditions: in vivo, 336 h, dose 50-2000 mg/kg, time 14 day
[28] = Renal toxicity in Albino mouse assessed as change in renal tubules at 50 to 2000 mg/kg, po measured after 14 days; type: organism-based; conditions: in vivo, 336 h, dose 50-2000 mg/kg, time 14 day
[29] = Acute toxicity in Albino mouse assessed as change in hemoglobin level at 50 to 2000 mg/kg, po measured after 14 days (reference value: 12.8 g/dl); type: organism-based; conditions: in vivo, 336 h, dose 50-2000 mg/kg, time 14 day
[30] = Acute toxicity in Albino mouse assessed as change in total leucocyte count at 50 to 2000 mg/kg, po measured after 14 days (reference value: 7400 mm3); type: organism-based; conditions: in vivo, 336 h, dose 50-2000 mg/kg, time 14 day
[31] = Acute toxicity in po dosed Albino mouse assessed as mortality after 14 days; type: organism-based; conditions: in vivo, time 14 day
[32] = Renal toxicity in Albino mouse assessed as change in tubular capillaries at 50 to 2000 mg/kg, po measured after 14 days; type: organism-based; conditions: in vivo, 336 h, dose 50-2000 mg/kg, time 14 day
[33] = Acute toxicity in Albino mouse assessed as change in serum urea level at 50 to 2000 mg/kg, po measured after 14 days (reference value: 46 mg/dl); type: organism-based; conditions: in vivo, 336 h, dose 50-2000 mg/kg, time 14 day
[34] = Acute toxicity in Albino mouse assessed as change in ALP level at 50 to 2000 mg/kg, po measured after 14 days (reference value: 28 IU/L); type: organism-based; conditions: in vivo, 336 h, dose 50-2000 mg/kg, time 14 day
[35] = Renal toxicity in Albino mouse assessed as change in renal corpuscles at 50 to 2000 mg/kg, po measured after 14 days; type: organism-based; conditions: in vivo, 336 h, dose 50-2000 mg/kg, time 14 day
[36] = Renal toxicity in Albino mouse assessed as change in distal convoluted tubules at 50 to 2000 mg/kg, po measured after 14 days; type: organism-based; conditions: in vivo, 336 h, dose 50-2000 mg/kg, time 14 day
[37] = Acute toxicity in Albino mouse assessed as change in monocytes at 50 to 2000 mg/kg, po measured after 14 days (reference value: 1%); type: organism-based; conditions: in vivo, 336 h, dose 50-2000 mg/kg, time 14 day
[38] = Cytotoxicity against african green monkey Vero cells assessed as cell viability at 25 ug/ml by MTT assay; type: toxicity, cell-based; conditions: chlorocebus sabaeus, at 25 µg/mL, read-out: Activity
[39] = Renal toxicity in Albino mouse assessed as extravasation of RBC at 50 to 2000 mg/kg, po measured after 14 days; type: organism-based, Erythrocyte; conditions: in vivo, 336 h, dose 50-2000 mg/kg, time 14 day
[40] = Pulmonary toxicity in Albino mouse assessed as appearance of cilia at 50 to 2000 mg/kg, po measured after 14 days; type: organism-based; conditions: in vivo, 336 h, dose 50-2000 mg/kg, time 14 day
[41] = Renal toxicity in Albino mouse assessed as change in Bowman's capsule at 50 to 2000 mg/kg, po measured after 14 days; type: organism-based; conditions: in vivo, 336 h, dose 50-2000 mg/kg, time 14 day
[42] = Hepatotoxicity in Albino mouse assessed as change in central vein at 50 to 2000 mg/kg, po measured after 14 days; type: toxicity, organism-based; conditions: in vivo, 336 h, dose 50-2000 mg/kg, time 14 day
[43] = Acute toxicity in Albino mouse assessed as mortality at 300 mg/kg, po after 5 to 8 hrs; type: organism-based; conditions: in vivo, time 5-8 hrs
[44] = Acute toxicity in Albino mouse assessed as change in neutrophils at 50 to 2000 mg/kg, po measured after 14 days (reference value: 75%); type: organism-based; conditions: in vivo, 336 h, dose 50-2000 mg/kg, time 14 day
[45] = Pulmonary toxicity in Albino mouse assessed as change in squamous pneumocytes at 50 to 2000 mg/kg, po measured after 14 days; type: organism-based; conditions: in vivo, 336 h, dose 50-2000 mg/kg, time 14 day
[46] = Acute toxicity in Albino mouse assessed as change in SGOT count at 50 to 2000 mg/kg, po measured after 14 days (reference value: 42 IU/L); type: organism-based; conditions: in vivo, 336 h, dose 50-2000 mg/kg, time 14 day
[47] = Hepatotoxicity in Albino mouse assessed as change in bile duct at 50 to 2000 mg/kg, po measured after 14 days; type: toxicity, organism-based, Liver; conditions: in vivo, 336 h, dose 50-2000 mg/kg, time 14 day

O=C1C(Cl)=C(N2C(=O)C(Cl)C2c2cccc([N+](=O)[O-])c2)C(=O)c2ccccc21 (configuration not stated)
MIC [1]: 12.5 µg/mL

O=C1C(Cl)=C(/N=C/c2ccccc2O)C(=O)c2ccccc21
MIC [1]: 12.5 µg/mL

O=C1C(Cl)=C(N2C(=O)C(Cl)C2c2ccc(Cl)cc2)C(=O)c2ccccc21 (configuration not stated)
Activity [2]: Non-Toxic | Activity [3]: Non-Toxic | Activity [4]: Toxic | Activity [5]: 6.1 | viability at 3.125 ug/ml [6]: 100% | Activity [7]: Non-Toxic | Activity [8]: 4% | Activity [9]: 42.09 IU/L | viability at 6.25 ug/ml [10]: 100% | Activity [11]: Non-Toxic | Activity [12]: Non-Toxic | Activity [13]: Non-Toxic | viability at 50 ug/ml [14]: 24.2% | Activity [15]: 9.6 | Activity [16]: Dose-Dependent Effect | viability at 100 ug/ml [17]: 8.6% | Activity [18]: Non-Toxic | Activity [19]: Non-Toxic | Activity [20]: Non-Toxic | Activity [21]: 44% | Activity [22]: Non-Toxic | viability at 12.5 ug/ml [23]: 69.1% | Activity [24]: Non-Toxic | Activity [25]: 14 millimeter/hr | Activity [26]: 134.22 IU/L | Activity [27]: 0.41 mg/dL | Activity [28]: Non-Toxic | Activity [29]: 13.1 g/dL | Activity [30]: 9400 mm3 | LD50 at 336 h [31]: 50 mg/kg | Activity [32]: Non-Toxic | MIC [1]: 7.69 µM | Activity [33]: 56.19 mg/dL | Activity [34]: 433.93 IU/L | Activity [35]: Non-Toxic | Activity [36]: Non-Toxic | Activity [37]: 1% | viability at 25 ug/ml [38]: 38% | Activity [39]: Non-Toxic | Activity [40]: Non-Toxic | Activity [41]: Non-Toxic | Activity [42]: Non-Toxic | Activity [43]: Toxic | Activity [44]: 70% | Activity [45]: Non-Toxic | Activity [46]: 136.54 IU/L | Activity [47]: Non-Toxic

O=C1C(Cl)=C(/N=C/c2ccccc2)C(=O)c2ccccc21
MIC [1]: 12.5 µg/mL

NNC(=O)c1ccncc1 [ISONIAZID]
MIC [1]: 1.82 µM

CCOc1cc(/C=N/C2=C(Cl)C(=O)c3ccccc3C2=O)ccc1O
MIC [1]: 6.25 µg/mL
